Measured values taken from patent US4472435A, “Benzophenone derivatives useful in treating heart failure” (Hoffman-La Roche Inc., priority 1980, dated 1984).

Tests used:
[1] = Acute toxicity, single oral administration; conditions: mouse, in vivo, mice
Text: (§1) The following Table contains results obtained in the previously described experiment with representative compounds of general formula I. In this Table there are given for each of the compounds figuring therein the dosage administered (in mg/kg p.o.) as well as the percentage variation in the urine volume, the sodium excretion and the potassium excretion in comparison with the control animals (i.e. in comparison with the animals treated only with aldosterone). Moreover, the Table contains data concerning the acute toxicity of the compounds investigated (LD 50 in mg/kg in the case of single oral administration to mice).

aldosterone = assay: Aldosterone antagonism in adrenalectomised rats (urine volume, sodium and potassium excretion); format: in vivo, Female Holtzmann rats; conditions: for Volume (urine volume), in %, based on control animals / [K+] (potassium excretion), in %, based on control animals / [Na+] (sodium excretion), in %, based on control animals: 30 min before aldosterone s.c., adrenalectomised rats, 3 h urine, control = aldosterone only
Method: These aldosterone-antagonistic properties can be dmonstrated in adrenalectomized rats as illustrated hereinafter.
If compounds of formula I are administered to the animals before the treatment with aldosterone, then there is observed, in comparison with the animals which are treated only with aldosterone (control animals), a pronounced increase of the sodium excretion (i.e. the sodium retention caused by aldosterone is antagonised), whereas the potassium excretion and the urine volume are influenced to a lesser extent.
The standard experiment is carried out as follows:
Female Holtzmann rats (150-180 g) are bilaterally adrenalectomised 70 to 74 hours before the beginning of the experiment. After the operation, the animals receive a customary rat dry feed and 0.9% sodium chloride solution for drinking. 16-17 hours before the beginning of the experiment the feed is removed from the animals, but they can subsequently drink, as before, 0.9% sodium chloride solution ad libitum. At the beginning of the experiment the substance to be tested as an aldosterone-antagonist is administered to the animals by means of a stomach probe. 30 minutes later the animals receive a subcutaneous injection of […] of aldosterone. After a further 90 minutes, the urinary bladders of the animals are emptied by careful suprapubic pressure, whereupon the animals are placed individually in metabolic cages without food and without drink. The urine of the animals is then collected for 3 hours, whereupon their urinary bladders are once more emptied. The spontaneously excreted urine and the remaining urine obtained at the conclusion of the experiment by pressing-out the urinary bladders are collected in graduated centrifuge glasses. Sodium and potassium concentrations in the urine are determined with a flame photometer.
as §1

[2] = aldosterone in adrenalectomised rats, compared to untreated animals

| SMILES | LD50 [1] [mg/kg] | Volume (urine volume), in %, based on control animals (aldosterone; 1 mg/kg p.o.) [%] | [K+] (potassium excretion), in %, based on control animals (aldosterone; 1 mg/kg p.o.) [%] | [Na+] (sodium excretion), in %, based on control animals (aldosterone; 1 mg/kg p.o.) [%] | Volume (urine volume), in %, based on control animals (aldosterone; 0.1 mg/kg p.o.) [%] | [K+] (potassium excretion), in %, based on control animals (aldosterone; 0.1 mg/kg p.o.) [%] | [Na+] (sodium excretion), in %, based on control animals (aldosterone; 0.1 mg/kg p.o.) [%] | other results |
| --- | --- | --- | --- | --- | --- | --- | --- | --- |
| CN(C(=O)CN)c1ccc(N)cc1C(=NO)c1ccccc1Cl [CH3, COCH2 NH2, OH, Cl, NH2, 2,4'-diamino-2'-[o-chloro-α-(hydroxyimino)benzyl]-N-methylacetanilide] | > 5000 | 155 | 94 | 254 | – | – | – | – |
| NCC(=O)Nc1ccc([N+](=O)[O-])cc1C(=NO)c1ccccc1Cl [H, COCH2 NH2, OH, Cl, NO2, 2-amino-2'-[o-chloro-α-(hydroxyimino)-benzyl]-4'-nitro-acetanilide] | > 5000 | – | – | – | 114 | 99 | 211 | – |
| CC(=NO)c1ccc(NC(=O)CN)c(C(=NO)c2ccccc2F)c1 [H, COCH2 NH2, OH, F, drawing 7, 2-amino-2'-[o-fluoro-α-(hydroxyimino)benzyl]-4'-[1-(hydroxyimino)ethyl]acetanilide] | > 5000 | 156 | 102 | 327 | – | – | – | Volume (urine volume), in %, based on control animals (aldosterone; 0.01 mg/kg p.o.): 161%; [K+] (potassium excretion), in %, based on control animals (aldosterone; 0.01 mg/kg p.o.): 86%; [Na+] (sodium excretion), in %, based on control animals (aldosterone; 0.01 mg/kg p.o.): 215% |
| NCC(=O)Nc1ccc([N+](=O)[O-])cc1C(=NO)c1ccccc1 [H, COCH2 NH2, OH, H, NO2, 2-amino-2'-[α-(hydroxyimino)-benzyl]-4'-nitro-acetanilide] | > 5000 | – | – | – | 152 | 97 | 230 | – |
| C[C@]12CCC(=O)C=C1CC[C@@H]1[C@@H]2[C@@H](O)C[C@]2(C=O)[C@@H](C(=O)CO)CC[C@@H]12 [aldosterone, reference compound] | – | – | – | – | – | – | – | potassium excretion after aldosterone (in words) (aldosterone; [2]): increased potassium excretion; sodium excretion after aldosterone (in words) (aldosterone; [2]): pronounced reduction of the sodium excretion; urine volume after aldosterone (in words) (aldosterone; [2]): reduction of the excreted urine volume |
